Drawing on patent US11446287B2, “Compounds and methods for EP300 or CBP modulation and indications therefor” (Opna Immuno-Oncology SA, priority 2019, dated 2022), this text covers IC50 for 29 compounds.

What is called IC50 is the midpoint of a concentration-inhibition curve.

The target in this assay is T1, Recombinant human EP300 containing the bromodomain (EP300-BD (1040-1161)) (Homo sapiens, UniProt Q09472).
T1 construct: Recombinant human EP300 bromodomain (EP300-BD (1040-1161)); made in house; host or cells: E. coli BL21-CodonPlus (DE3), modified pET vector
T1 sequence (Q09472 1040-1161): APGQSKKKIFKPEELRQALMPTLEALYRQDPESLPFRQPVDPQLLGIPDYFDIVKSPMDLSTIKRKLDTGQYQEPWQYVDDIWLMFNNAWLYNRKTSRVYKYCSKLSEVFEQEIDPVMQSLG
Put plainly: EP300 Alphascreen binding assay. An outline of the steps:
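Displacement of a biotinylated acetyl-K56 histone H3 peptide from the N-His bromodomain construct (1040-1161) measured by AlphaScreen proximity, beads at 7.5 μg/ml final, read 60 min after addition. Protein, peptide and compound first incubated 1 h at room temperature, pH 7.5 HEPES buffer; IC50 by four-parameter logistic fit.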

On to `Cc1noc(C)c1-c1cnc2c(c1)c(-c1ccc(C(=O)O)cc1)cn2C(C)c1ncccn1` (centres unmarked) [P-0013, 4-(5-(3,5-dimethylisoxazol-4-yl)-1-(1-(pyrimidin-2-yl)ethyl)-1H-pyrrolo[2,3-b]pyridin-3-yl)benzoic acid], for which the IC50 is 0.1 to 1000 nM.

Take `Cc1noc(C)c1-c1cnc2c(c1)c(-c1ccc(C(=O)O)cc1)cn2C(C)c1ccc(F)cn1` (centres unmarked) [P-0014, 4-(5-(3,5-dimethylisoxazol-4-yl)-1-(1-(5-fluoropyridin-2-yl)ethyl)-1H-pyrrolo[2,3-b]pyridin-3-yl)benzoic acid]: the IC50 was in the range of 0.1 to 1000 nM.

Take `Cc1noc(C)c1-c1cnc2c(c1)c(-c1cccc(C(=O)O)c1)cn2C(c1ccccn1)C1CCCC1` (centres unmarked) [P-0015, 3-(1-(cyclopentyl(pyridin-2-yl)methyl)-5-(3,5-dimethylisoxazol-4-yl)-1H-pyrrolo[2,3-b]pyridin-3-yl)benzoic acid]: the IC50 was 0.1 to 1000 nM.

In the case of `Cc1noc(C)c1-c1cnc2c(c1)c(-c1ccc(F)c(C(=O)O)c1)cn2C(c1ccccn1)C1CCCC1` (centres unmarked) [P-0016, 5-(1-(cyclopentyl(pyridin-2-yl)methyl)-5-(3,5-dimethylisoxazol-4-yl)-1H-pyrrolo[2,3-b]pyridin-3-yl)-2-fluorobenzoic acid], the IC50 fell in the range of 0.1 to 1000 nM.

In the case of `Cc1noc(C)c1-c1cnc2c(c1)c(-c1ccnc(C(=O)O)c1)cn2C(c1ccccn1)C1CCCC1` (centres unmarked) [P-0017, 4-(1-(cyclopentyl(pyridin-2-yl)methyl)-5-(3,5-dimethylisoxazol-4-yl)-1H-pyrrolo[2,3-b]pyridin-3-yl)picolinic acid], the IC50 lay in the range of 0.1 to 1000 nM.

For `Cc1noc(C)c1-c1cnc2c(c1)c(-c1cccc(CC(=O)O)c1)cn2C(c1ccccn1)C1CCCC1` (centres unmarked) [P-0018, 2-(3-(1-(cyclopentyl(pyridin-2-yl)methyl)-5-(3,5-dimethylisoxazol-4-yl)-1H-pyrrolo[2,3-b]pyridin-3-yl)phenyl)acetic acid], the IC50 lay within 0.1 to 1000 nM.

For `Cc1noc(C)c1-c1cnc2c(c1)c(-c1ccncc1)cn2C(c1ccccn1)C1CCCC1` (centres unmarked) [P-0019, 4-(1-(cyclopentyl(pyridin-2-yl)methyl)-3-(pyridin-4-yl)-1H-pyrrolo[2,3-b]pyridin-5-yl)-3,5-dimethylisoxazole], the IC50 lay within 1000 to 8000 nM.

For `Cc1noc(C)c1-c1cnc2c(c1)c(-c1ccc(C(=O)O)cc1OC1CC1)cn2[C@@H](C)c1ccccn1` [P-0170, (S)-3-cyclopropoxy-4-(5-(3,5-dimethylisoxazol-4-yl)-1-(1-(pyridin-2-yl)ethyl)-1H-pyrrolo[2,3-b]pyridin-3-yl)benzoic acid], the IC50 was in the range of 0.1 to 1000 nM.

With `Cc1noc(C)c1-c1cnc2c(-c3ccc(C(=O)O)cc3C#CC3CC3)cn([C@@H](C)c3ccccn3)c2c1` [P-0171, (S)-3-(cyclopropylethynyl)-4-(6-(3,5-dimethylisoxazol-4-yl)-1-(1-(pyridin-2-yl)ethyl)-1H-pyrrolo[3,2-b]pyridin-3-yl)benzoic acid], the IC50 is 0.1 to 1000 nM.

On to `COc1ccc(C(=O)O)cc1-c1cn(C(C)(c2ccccn2)c2ccccn2)c2cc(-c3c(C)noc3C)cnc12` [P-0172, 3-(1-(1,1-di(pyridin-2-yl)ethyl)-6-(3,5-dimethylisoxazol-4-yl)-1H-pyrrolo[3,2-b]pyridin-3-yl)-4-methoxybenzoic acid], for which the IC50 lay in the range of 1000 to 8000 nM.

For the compound `CCOc1cc(C(=O)O)cc(OCC)c1-n1cc(-c2cccnc2)c2ncc(-c3c(C)noc3C)cc21` [P-0173, 4-(6-(3,5-dimethylisoxazol-4-yl)-3-(pyridin-3-yl)-1H-pyrrolo[3,2-b]pyridin-1-yl)-3,5-diethoxybenzoic acid], the IC50 was in the range of 0.1 to 1000 nM.

As for `CCOc1cc(C(=O)O)cc(OC(C)C)c1-c1cn([C@@H](C)c2ccccn2)c2ncc(-c3c(C)noc3C)cc12` [P-0174, (S)-4-(5-(3,5-dimethylisoxazol-4-yl)-1-(1-(pyridin-2-yl)ethyl)-1H-pyrrolo[2,3-b]pyridin-3-yl)-3-ethoxy-5-isopropoxybenzoic acid], the IC50 is 0.1 to 1000 nM.

As for `Cc1noc(C)c1-c1cnc2c(c1)c(-c1ccc(C(=O)O)cc1OC(F)(F)F)cn2-c1cccnc1` [P-0175, 4-(5-(3,5-dimethylisoxazol-4-yl)-1-(pyridin-3-yl)-1H-pyrrolo[2,3-b]pyridin-3-yl)-3-(trifluoromethoxy)benzoic acid], the IC50 was 0.1 to 1000 nM.

Regarding `COc1ccncc1-n1cc(-c2ccc(C(=O)O)cc2OC(F)(F)F)c2cc(-c3c(C)noc3C)cnc21` [P-0176, 4-(5-(3,5-dimethylisoxazol-4-yl)-1-(4-methoxypyridin-3-yl)-1H-pyrrolo[2,3-b]pyridin-3-yl)-3-(trifluoromethoxy)benzoic acid], the IC50 lay within 0.1 to 1000 nM.

Regarding `Cc1noc(C)c1-c1cnc2c(c1)c(-c1ccc(C(=O)O)cc1OC(F)(F)F)cn2-c1cnccc1Cl` [P-0177, 4-(1-(4-chloropyridin-3-yl)-5-(3,5-dimethylisoxazol-4-yl)-1H-pyrrolo[2,3-b]pyridin-3-yl)-3-(trifluoromethoxy)benzoic acid], the IC50 lay within 0.1 to 1000 nM.

Take `Cc1noc(C)c1-c1cnc2c(c1)c(-c1ccc(C(=O)O)cc1C#CC1CC1)cn2[C@@H](C)c1ccccn1` [P-0178, (S)-3-(cyclopropylethynyl)-4-(5-(3,5-dimethylisoxazol-4-yl)-1-(1-(pyridin-2-yl)ethyl)-1H-pyrrolo[2,3-b]pyridin-3-yl)benzoic acid]: the IC50 was in the range of 1000 to 8000 nM.

Take `Cc1noc(C)c1-c1cnc2c(c1)c(-c1ccc(C(=O)O)cc1OC1CCC1)cn2[C@@H](C)c1ccccn1` [P-0179, (S)-3-cyclobutoxy-4-(5-(3,5-dimethylisoxazol-4-yl)-1-(1-(pyridin-2-yl)ethyl)-1H-pyrrolo[2,3-b]pyridin-3-yl)benzoic acid]: the IC50 lay within 0.1 to 1000 nM.

As to `Cc1noc(C)c1-c1cnc2c(c1)c(-c1ccc(C(=O)O)cc1OC(F)(F)F)cn2-c1ncccc1C(F)(F)F` [P-0180, 4-(5-(3,5-dimethylisoxazol-4-yl)-1-(3-(trifluoromethyl)pyridin-2-yl)-1H-pyrrolo[2,3-b]pyridin-3-yl)-3-(trifluoromethoxy)benzoic acid], the IC50 was 0.1 to 1000 nM.

Take `Cc1noc(C)c1-c1cnc2c(c1)c(-c1ccc(C(=O)O)cc1C1CC1)cn2[C@@H](C)c1ccccn1` [P-0181, (S)-3-cyclopropyl-4-(5-(3,5-dimethylisoxazol-4-yl)-1-(1-(pyridin-2-yl)ethyl)-1H-pyrrolo[2,3-b]pyridin-3-yl)benzoic acid]: the IC50 was 0.1 to 1000 nM.

As for `Cc1noc(C)c1-c1cnc2c(c1)c(-c1ccc(C(=O)O)cc1OC(F)(F)F)cn2-c1ncccc1F` [P-0182, 4-(5-(3,5-dimethylisoxazol-4-yl)-1-(3-fluoropyridin-2-yl)-1H-pyrrolo[2,3-b]pyridin-3-yl)-3-(trifluoromethoxy)benzoic acid], the IC50 was in the range of 0.1 to 1000 nM.

With `Cc1noc(C)c1-c1cnc2c(c1)c(-c1ccc(C(=O)O)cc1OC(F)(F)F)cn2-c1ncccc1Cl` [P-0183, 4-(1-(3-chloropyridin-2-yl)-5-(3,5-dimethylisoxazol-4-yl)-1H-pyrrolo[2,3-b]pyridin-3-yl)-3-(trifluoromethoxy)benzoic acid], the IC50 was in the range of 0.1 to 1000 nM.

On to `CCOc1cc(C(=O)O)cc(OCC)c1-n1cc(-c2ccc(F)cc2)c2ncc(-c3c(C)noc3C)cc21` [P-0184, 4-(6-(3,5-dimethylisoxazol-4-yl)-3-(4-fluorophenyl)-1H-pyrrolo[3,2-b]pyridin-1-yl)-3,5-diethoxybenzoic acid], for which the IC50 is 0.1 to 1000 nM.

Take `CCOc1cc(C(=O)O)cc(OCC)c1-n1cc(-c2cccc(Cl)c2)c2ncc(-c3c(C)noc3C)cc21` [P-0185, 4-(3-(3-chlorophenyl)-6-(3,5-dimethylisoxazol-4-yl)-1H-pyrrolo[3,2-b]pyridin-1-yl)-3,5-diethoxybenzoic acid]: the IC50 lay within 0.1 to 1000 nM.

For the compound `CCOc1cc(C(=O)O)cc(OCC)c1-n1cc(-c2ccc(F)cc2F)c2ncc(-c3c(C)noc3C)cc21` [P-0186, 4-(3-(2,4-difluorophenyl)-6-(3,5-dimethylisoxazol-4-yl)-1H-pyrrolo[3,2-b]pyridin-1-yl)-3,5-diethoxybenzoic acid], the IC50 was in the range of 0.1 to 1000 nM.

For `CCOc1cc(C(=O)O)cc(OCC)c1-n1cc(Cc2ccccn2)c2ncc(-c3c(C)noc3C)cc21` [P-0187, 4-(6-(3,5-dimethylisoxazol-4-yl)-3-(pyridin-2-ylmethyl)-1H-pyrrolo[3,2-b]pyridin-1-yl)-3,5-diethoxybenzoic acid], the IC50 was 0.1 to 1000 nM.

Regarding `Cc1noc(C)c1-c1cnc2c(c1)c(-c1ccc(C(=O)O)cc1OC(F)(F)F)cn2-c1ccccc1` [P-0188, 4-(5-(3,5-dimethylisoxazol-4-yl)-1-phenyl-1H-pyrrolo[2,3-b]pyridin-3-yl)-3-(trifluoromethoxy)benzoic acid], the IC50 is 0.1 to 1000 nM.

Regarding `Cc1ccncc1-n1cc(-c2ccc(C(=O)O)cc2OC(F)(F)F)c2cc(-c3c(C)noc3C)cnc21` [P-0189, 4-(5-(3,5-dimethylisoxazol-4-yl)-1-(4-methylpyridin-3-yl)-1H-pyrrolo[2,3-b]pyridin-3-yl)-3-(trifluoromethoxy)benzoic acid], the IC50 lay in the range of 0.1 to 1000 nM.

For `CCOc1cc(C(=O)O)cc(OCC)c1-n1cc(CC2CCC2)c2ncc(-c3c(C)nnn3C)cc21` [P-0190, 4-(3-(cyclobutylmethyl)-6-(1,4-dimethyl-1H-1,2,3-triazol-5-yl)-1H-pyrrolo[3,2-b]pyridin-1-yl)-3,5-diethoxybenzoic acid], the IC50 lay within 0.1 to 1000 nM.

As to `Cc1noc(C)c1-c1cnc2c(c1)c(-c1ccc(C(=O)O)cc1OC(F)(F)F)cn2CCN1CCOCC1` [P-0191, 4-(5-(3,5-dimethylisoxazol-4-yl)-1-(2-morpholinoethyl)-1H-pyrrolo[2,3-b]pyridin-3-yl)-3-(trifluoromethoxy)benzoic acid], the half-inhibitory concentration (IC50) lay within 0.1 to 1000 nM.
